Test results from the supplement of paper PMC10307832.

What was measured:
Assay in all cases: relative viability (nuclei count vs DMSO), 5 days (fraction); higher = more cells survive
[1] = compound: O=c1[nH]cc(F)c(=O)[nH]1 [5-Fluorouracil] + CC(=O)c1c(C)c2cnc(Nc3ccc(N4CCNCC4)cn3)nc2n(C2CCCC2)c1=O [Palbociclib] (partner 0.5 µM)
How it was run: (§1)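 Values are medians from duplicate plates. Each reflects relative viability, defined as the nuclei count of treated wells over that of vehicle wells. Lung cancer cell lines in 1536-well plates were pin-tool dosed one day after seeding with one drug alone or with a fixed anchor-drug dose plus five library-drug doses (not always all listed) in √10 steps, then fixed, stained and imaged at 4× after 5 days.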

[2] = compound: CN[C@@H]1C[C@H]2O[C@@](C)([C@@H]1OC)n1c3ccccc3c3c4c(c5c6ccccc6n2c5c31)C(=O)NC4 [Staurosporine] + CC(=O)Nc1cccc(-n2c(=O)n(C3CC3)c(=O)c3c(Nc4ccc(I)cc4F)n(C)c(=O)c(C)c32)c1 [Trametinib] (partner 0.02 µM)
How it was run: as §1

[3] = compound: CN[C@@H]1C[C@H]2O[C@@](C)([C@@H]1OC)n1c3ccccc3c3c4c(c5c6ccccc6n2c5c31)C(=O)NC4 [Staurosporine] + CC1(C)CCC(c2ccc(Cl)cc2)=C(CN2CCN(c3ccc(C(=O)NS(=O)(=O)c4ccc(N[C@H](CCN5CCOCC5)CSc5ccccc5)c(S(=O)(=O)C(F)(F)F)c4)cc3)CC2)C1 [Navitoclax] (partner 0.5 µM)
How it was run: as §1

[4] = compound: CC1=C(CC(=O)O)c2cc(F)ccc2/C1=C\c1ccc([S+](C)[O-])cc1 [Sulindac] + O=C(c1cc(Cc2n[nH]c(=O)c3ccccc23)ccc1F)N1CCN(C(=O)C2CC2)CC1 [Olaparib] (partner 8 µM)
How it was run: as §1

Cell Line: UMC-11
- relative viability ([1]; first compound 0.02 µM): 0.344
- relative viability ([1]; first compound 0.2 µM): 0.364
- relative viability ([1]; first compound 0.6325 µM): 0.309
- relative viability ([2]; first compound 0.005 µM): 0.444
- relative viability ([2]; first compound 0.01581 µM): 0.0989
- relative viability ([2]; first compound 0.05 µM): 0.212
- relative viability ([2]; first compound 0.1581 µM): 0.121
- relative viability ([2]; first compound 0.5 µM): 0.0798
- relative viability ([3]; first compound 0.005 µM): 0.265
- relative viability ([3]; first compound 0.01581 µM): 0.158
- relative viability ([3]; first compound 0.05 µM): 0.141
- relative viability ([3]; first compound 0.1581 µM): 0.106
- relative viability ([3]; first compound 0.5 µM): 0.103
- relative viability ([4]; first compound 0.08 µM): 0.463
- relative viability ([4]; first compound 0.253 µM): 0.342
- relative viability ([4]; first compound 0.8 µM): 0.42
- relative viability ([4]; first compound 2.53 µM): 0.339
- relative viability ([4]; first compound 8 µM): 0.332
